Measured values from patent US5607926A, “Cephalosporin antibiotics” (Microcide Pharmaceuticals, Inc., priority 1995, dated 1997).
Values after ≈ are worked out from the molar mass of the structure shown. Read-outs that look alike come from different tables or passages of the source.

Tests used:
Assay type in all cases: cell-based
[1] = system: S. aureus 76 (Meth^R)(lac^+); assay: In vitro antibacterial evaluation, MIC by agar dilution, S. aureus 76; details: Staphylococcus aureus, read-out: MIC
Protocol: (§1) The compounds of the invention were evaluated against several β-lactamresistant bacteria strains by determining the minimum inhibitory concentration (MIC, μg/ml) of each compound with respect to each strain. The MIC, the lowest concentration of antibiotic which inhibits growth of the test organism, was determined by the agar dilution method.
(§2) To determine the MIC for bacterial isolates, the test compound was incorporated in a series of two-fold dilutions into liquified Mueller-Hinton agar. Upon solidification, a number of different bacterial strains were spot inoculated with a replicating device onto the agar surface. […] The procedures used in these studies have been standardized by the National Committee for Clinical Laboratory Standards (NCCLS), as per the NCCLS publication entitled METHODS FOR DILUTION ANTIMICROBIAL SUSCEPTIBILITY TESTS (1991), which is incorporated herein by reference.
(§3) Aliquots of antimicrobial agents were prepared in phosphate buffered saline (PBS) at pH 7.2. Tween 20 or DMSO was used as a solubilizing vehicle as needed. Standard methods of vortexing, sonicating and gentle heat were used to facilitate solubilizing the test agent. Typically, the concentration of the stock solution was 10× that of the highest drug concentration tested. A 1.28 mg/mL stock solution was used with a subsequent highest working concentration of 128 μg/mL. Serial two-fold dilutions were done through ≤0.25 μg/mL. Each drug level was tested in duplicate. Two-fold drug dilutions were done in sterile 50 mL tubes with a final drug volume of 5 mL. Upon the addition of 45 mL of molten agar, a 10-fold dilution resulted. Two, 25 mL. plates were then poured into 15×150 mm square Petri plates with grids and allowed to harden.
(§4) A control plate with a reference drug, either cefotaxime, vancomycin or imipenem, was used as the positive growth control. Stock concentrations of reference antibiotics were prepared and frozen at -80° C. Upon preparation, the control plates were sealed and stored in the refrigerator for up to 1 week prior to use; however, imipenem control plates had to be prepared just prior to use. All test plates were used within 24 hours of preparation.
(§5) Satisfactory results were obtained where the inoculum contained about 10^4 colony forming units (cfu) ±0.5 logs. Starting with pure cultures of the test isolates on agar plates, a few isolated colonies were transferred to a tube of nutrient broth and allowed to grow 4-6 hours at 35°-36° C. to reach log-phase growth. Dropwise addition of the broth culture to PBS was done to match a 0.5 McFarland turbidity standard equal to 10^8 cfu/mL. This was further diluted ten-fold in PBS to reach a working inoculum concentration of 10^7 cfu/mL. When 1 μL of the working inoculum was applied to the agar surface a concentration of about 10^4 cfu per spot was obtained.
(§6) Disposable sterile 1 μL loops were used to inoculate test plates, with each isolate in a designated grid on the agar plate. An alternate method of inoculation involved the use of a replica plater, a device with 48 steel pins allowing the simultaneous inoculation of multiple isolates. After the spots had dried, the plates were incubated at 35°-36° C. for 16-20 hours. Endpoints were assessed as the minimum inhibitory concentration (MIC) of antimicrobial agent.

E. coli ATCC 25922 = assay: In vitro antibacterial evaluation, MIC by agar dilution, E. coli ATCC 25922; details: Escherichia coli, ATCC25922, read-out: MIC
Protocol: as §1, §2, §3, §4, §5, §6

[2] = system: S. aureus Col8A (Meth^S)(lac^-); assay: In vitro antibacterial evaluation, MIC by agar dilution, S. aureus Col8A; details: Staphylococcus aureus
Protocol: as §1, §2, §3, §4, §5, §6
The novel agents of this invention are notable for their enhanced activity against S. aureus Col and Enterococci (E. faecium and E. faecalis). The S. aureus Col strain is a high-level PBP2a producer, whereas S. aureus Col 8A, its isogenic partner, lacks PBP2a. […] Thus, the compounds of the present invention are effective against PBP2a-producing bacteria.

E. faecium ATCC 35667 = assay: In vitro antibacterial evaluation, MIC by agar dilution, E. faecium ATCC 35667; details: Enterococcus faecium, ATCC35667, read-out: MIC
Protocol: as §1, §2, §3, §4, §5, §6

S. haemolyticus (Meth^R) = assay: In vitro antibacterial evaluation, MIC by agar dilution, S. haemolyticus; details: Staphylococcus haemolyticus, read-out: MIC
Protocol: as §1, §2, §3, §4, §5, §6

S. aureus ATCC 29213 = assay: In vitro antibacterial evaluation, MIC by agar dilution, S. aureus ATCC 29213; details: Staphylococcus aureus, ATCC29213
Protocol: as §1, §2, §3, §4, §5, §6

[3] = system: S. epidermidis ATCC 31432; assay: In vitro antibacterial evaluation, MIC by agar dilution, S. epidermidis ATCC 31432; details: Staphylococcus epidermidis, ATCC31432
Protocol: as §1, §2, §3, §4, §5, §6

P. aeruginosa ATCC 27853 = assay: In vitro antibacterial evaluation, MIC by agar dilution, P. aeruginosa ATCC 27853; details: Pseudomonas aeruginosa, ATCC27853, read-out: MIC
Protocol: as §1, §2, §3, §4, §5, §6

[4] = S. epidermidis ATCC 31432, read-out: MIC

SMILES	MIC [1] [µg/mL]	MIC (E. coli ATCC 25922) [µg/mL]	MIC [2] [µg/mL]	MIC (E. faecium ATCC 35667) [µg/mL]	MIC (S. haemolyticus (Meth^R)) [µg/mL]	MIC (S. aureus ATCC 29213) [µg/mL]	MIC [3] [µg/mL]	MIC (P. aeruginosa ATCC 27853) [µg/mL]	MIC (S. aureus ATCC 29213; S. aureus ATCC 29213, read-out: MIC) [µg/mL]	MIC [3, 4] [µg/mL]
O=C(COc1ccc(Cl)cc1)N[C@@H]1C(=O)N2C(C(=O)O)=C(Sc3ccccc3I)CS[C@H]12 [Cmpd 30, (7R)-7-[(p-Chlorophenoxyacetyl)amino]-3-(o-iodophenylthio)-3-cephem-4-carboxylic acid]	2 (≈ 3.32 µM)	> 32	< 0.25	1 (≈ 1.66 µM)	4 (≈ 6.64 µM)	< 0.25	< 0.25	13 (≈ 21.6 µM)	–	–
O=C(Cc1ccccc1)N[C@@H]1C(=O)N2C(C(=O)O)=C(Sc3cccc(Cl)c3Cl)CS[C@H]12 [Cmpd 24, (7R)-7-[(Phenylacetyl)amino]-3-(2,3-dichlorophenylthio)-3-cephem-4-carboxylic acid]	4 (≈ 8.07 µM)	> 32	< 0.25	2 (≈ 4.04 µM)	8 (≈ 16.1 µM)	< 0.25	< 0.25	–	–	–
Nc1nc(/C(=N/O)C(=O)N[C@@H]2C(=O)N3C(C(=O)O)=C(Sc4ccccc4I)CS[C@H]23)cs1 [Cmpd 22, (7R)-7-[(Z)-2-(aminothiazol-4-yl)-2-(hydroxyimino)acetamido]-3-(o-iodophenylthio)-3-cephem-4-carboxylic acid]	4 (≈ 6.63 µM)	4 (≈ 6.63 µM)	0.5 (≈ 0.829 µM)	2 (≈ 3.31 µM)	4 (≈ 6.63 µM)	–	–	–	< 0.25	< 0.25
O=C(Cc1ccccc1)N[C@@H]1C(=O)N2C(C(=O)O)=C(Sc3cc(F)ccc3Br)CS[C@H]12 [Cmpd 33, (7R)-7-[(Phenylacetyl)amino]-3-(2-bromo-5-fluorophenylthio)-3-cephem-4-carboxylic acid]	4 (≈ 7.64 µM)	> 32	< 0.25	1 (≈ 1.91 µM)	16 (≈ 30.6 µM)	< 0.25	< 0.25	–	–	–
O=C(Cc1cccs1)N[C@@H]1C(=O)N2C(C(=O)O)=C(Sc3ccccc3Br)CS[C@H]12 [Cmpd 20, (7R)-7-[(2-Thienylacetyl)amino]-3-(o-bromophenylthio)-3-cephem-4-carboxylic acid]	4 (≈ 7.82 µM)	> 32	< 0.25	2 (≈ 3.91 µM)	8 (≈ 15.6 µM)	< 0.25	< 0.25	–	–	–
COC(=O)c1ccccc1SC1=C(C(=O)O)N2C(=O)[C@@H](NC(=O)Cc3ccccc3)[C@H]2SC1 [Cmpd 19, (7R)-7-[(Phenylacetyl)amino]-3-(o-carbomethoxyphenylthio)-3-cephem-4-carboxylic acid]	16 (≈ 33 µM)	> 32	< 0.25	2 (≈ 4.13 µM)	32 (≈ 66 µM)	< 0.25	< 0.25	–	–	–
COc1ccc(CC(=O)N[C@@H]2C(=O)N3C(C(=O)O)=C(Sc4ccccc4I)CS[C@H]23)cc1 [Cmpd 29, (7R)-7-[(p-Methoxyphenylacetyl)amino]-3-(o-iodophenylthio)-3-cephem-4-carboxylic acid]	4 (≈ 6.87 µM)	> 32	< 0.25	1 (≈ 1.72 µM)	16 (≈ 27.5 µM)	< 0.25	< 0.25	–	–	–
O=C(Cc1ccccc1)N[C@@H]1C(=O)N2C(C(=O)O)=C(Sc3ccc(Cl)cc3Cl)CS[C@H]12 [Cmpd 28, (7R)-7-[(Phenylacetyl)amino]-3-(2,4-dichlorophenylthio)-3-cephem-4-carboxylic acid]	4 (≈ 8.07 µM)	> 32	< 0.25	2 (≈ 4.04 µM)	8 (≈ 16.1 µM)	< 0.25	< 0.25	–	–	–
O=C(Cc1ccccc1)N[C@@H]1C(=O)N2C(C(=O)O)=C(Sc3ccc(Cl)c(Cl)c3)CS[C@H]12 [Cmpd 18, (7R)-7-[(Phenylacetyl)amino]-3-(3,4-dichlorophenylthio)-3-cephem-4-carboxylic acid]	16 (≈ 32.3 µM)	> 32	< 0.25	4 (≈ 8.07 µM)	32 (≈ 64.6 µM)	< 0.25	< 0.25	–	–	–
N#Cc1ccc(-c2ccccc2SC2=C(C(=O)O)N3C(=O)[C@@H](NC(=O)Cc4ccccc4)[C@H]3SC2)cc1 [Cmpd 23, (7R)-7-[(Phenylacetyl)amino]-3-(2-(4-cyanophenyl)phenylthio)-3-cephem-4-carboxylic acid]	8 (≈ 15.2 µM)	> 32	< 0.25	2 (≈ 3.79 µM)	16 (≈ 30.3 µM)	< 0.25	< 0.25	–	–	–
O=C(Cc1ccccc1)N[C@@H]1C(=O)N2C(C(=O)O)=C(Sc3cccc4ccccc34)CS[C@H]12 [Cmpd 54, (7R)-7-[(Phenylacetyl)amino]-3-(1-naphthalenylthio)-3-cephem-4-carboxylic acid]	8 (≈ 16.8 µM)	> 32	< 0.25	4 (≈ 8.39 µM)	16 (≈ 33.6 µM)	< 0.25	< 0.25	> 32	–	–
O=C(Cc1cccs1)N[C@@H]1C(=O)N2C(C(=O)O)=C(Sc3ccccc3I)CS[C@H]12 [Cmpd 25, (7R)-7-[(2-Thienylacetyl)amino]-3-(o-iodophenylthio)-3-cephem-4-carboxylic acid]	4 (≈ 7.16 µM)	> 32	0.125 (≈ 0.224 µM)	2 (≈ 3.58 µM)	16 (≈ 28.7 µM)	0.125 (≈ 0.224 µM)	–	–	–	< 0.06
O=C(COc1ccc(Cl)cc1)N[C@@H]1C(=O)N2C(C(=O)O)=C(Sc3cc(Cl)ccc3Cl)CS[C@H]12 [Cmpd 31, (7R)-7-[(p-Chlorophenoxyacetyl)amino]-3-(2,5-dichlorophenylthio)-3-cephem-4-carboxylic acid]	4 (≈ 7.33 µM)	> 32	< 0.25	4 (≈ 7.33 µM)	8 (≈ 14.7 µM)	< 0.25	< 0.25	–	–	–
COc1ccc(CC(=O)N[C@@H]2C(=O)N3C(C(=O)O)=C(Sc4cc(Cl)ccc4Cl)CS[C@H]23)cc1 [Cmpd 32, (7R)-7-[(p-Methoxyphenylacetyl)amino]-3-(2,5-dichlorophenylthio)-3-cephem-4-carboxylic acid]	4 (≈ 7.61 µM)	> 32	< 0.25	2 (≈ 3.81 µM)	16 (≈ 30.5 µM)	< 0.25	< 0.25	–	–	–
O=C(Cc1cccs1)N[C@@H]1C(=O)N2C(C(=O)O)=C(Sc3cc(Cl)ccc3Cl)CS[C@H]12 [Cmpd 26, (7R)-7-[(2-Thienylacetyl)amino]-3-(2,5-dichlorophenylthio)-3-cephem-4-carboxylic acid]	4 (≈ 7.98 µM)	> 32	< 0.25	2 (≈ 3.99 µM)	8 (≈ 16 µM)	< 0.25	< 0.25	–	–	–
O=C(Cc1ccccc1)N[C@@H]1C(=O)N2C(C(=O)O)=C(Sc3cccc4oc5ccccc5c34)CS[C@H]12 [Cmpd 21, (7R)-7-[(Phenylacetyl)amino]-3-(dibenzofuranyl-1-thio)-3-cephem-4-carboxylic acid]	4 (≈ 7.74 µM)	> 32	< 0.25	4 (≈ 7.74 µM)	32 (≈ 61.9 µM)	< 0.25	< 0.25	–	–	–
O=C(Cc1ccccc1)N[C@@H]1C(=O)N2C(C(=O)O)=C(Sc3ccccc3-c3ccco3)CS[C@H]12 [Cmpd 27, (7R)-7-[(Phenylacetyl)amino]-3-(2-(2-furyl)phenylthio)-3-cephem-4-carboxylic acid]	4 (≈ 8.12 µM)	> 32	< 0.25	1 (≈ 2.03 µM)	16 (≈ 32.5 µM)	< 0.25	< 0.25	–	–	–
